Assay results published in patent US20110053923A1, “CHEMICAL COMPOUNDS 610” (AstraZeneca, priority 2008, published 2011).
Read-outs that look alike come from different tables or passages of the source.

What was measured:
[1] = test system: HT29 cells; assay: Cellular SRB assay (Test (d)), potentiation of carboplatin; format: cell-based; conditions: for IC50: geometric mean
Protocol: (d) Cellular—SRB Assay The potentiation factor (PF50) for compounds is a measure of the fold increase in effect of a chemotherapeutic agent, when used in combination with an ATR inhibitor. Specifically, this is calculated as a ratio of the IC50 of control cell growth in the presence of a chemotherapeutic agent, typically carboplatin, divided by the IC50 of cell growth in the presence of this agent and the ATR inhibitor of interest. For this purpose, HT29 cells were seeded at the appropriate density to ensure exponential growth throughout the time of the assay (typically 1000-1500 cells) in each well of a 96-well plate, in a volume of 80 μl and incubated overnight at 37° C. Subsequently, cells were dosed with either DMSO vehicle, or treated with test compounds at fixed concentrations (typically 1, 0.3 & 0.1 μM). Following a one hour incubation at 37° C., the cells were further treated with a 10 point dose response of the chemotherapeutic agent, based on it's known sensitivity (typically 30-0.001 ug/ml for carboplatin). Cells were left to grow for 5 days at 37° C., after which time cell growth was assessed using the sulforhodamine B (SRB) assay (Skehan, P et al, 1990 New colorimetric cytotoxic assay for anticancer-drug screening. J. Natl. Cancer Inst. 82, 1107-1112.). Specifically, the media was removed and cells fixed with 100 μl of ice cold 10% (w/v) trichloroacetic acid. The plates were then incubated at 4° C. for 20 minutes prior to washing 4 times with water. Each well was then stained with 100 μL of 0.4% (w/v) SRB in 1% acetic acid for 20 minutes before a further 4 washes with 1% acetic acid. Plates were then dried for 2 hours at room temperature and the dye was solubilized by the addition of 100 μL Tris Base pH 8.5 into each well. Plates were shaken before measuring optical density at 564 nm (OD564). In order to calculate the PF50, the OD564 values obtained for the dose-response curve of chemotherapeutic agent were expressed as a percentage of the value obtained from cells treated with vehicle alone. Similarly, to act as a control for inclusion of the ATR inhibitor, values from the chemotherapeutic agent tested in combination with a fixed ATR inhibitor concentration were expressed as a percentage of the value obtained from cells treated with the corresponding concentration of ATR inhibitor alone. From these internally-controlled curves, IC50 values were calculated and the PF50 was determined as the ratio of these values, as described above. Compounds are compared using the PF50 value at concentrations of ATR inhibitor that show minimal growth inhibition on their own.

[2] = molecular target: T1, ATR (Homo sapiens, UniProt Q13535); assay: Enzyme Assay - ATR (Test (a)); format: biochemical; conditions: ATR immunoprecipitated from HeLa nuclear extract; 3 μM ATP; average of individual tests; read-out: ATR average IC50;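 note: kinase activity of bead-bound ATR toward a GST-p53 N-terminal fragment substrate, 1 h at 37 °C, read by chemiluminescence, with inhibitor-free wells as control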
T1 construct: obtained from HeLa nuclear extract (CIL Biotech, Mons, Belgium) by immunoprecipitation with rabbit polyclonal antiserum raised to amino acids 400-480 of ATR; host or cells: HeLa nuclear extract
T1 sequence (Q13535 whole entry, the tested form may be a part): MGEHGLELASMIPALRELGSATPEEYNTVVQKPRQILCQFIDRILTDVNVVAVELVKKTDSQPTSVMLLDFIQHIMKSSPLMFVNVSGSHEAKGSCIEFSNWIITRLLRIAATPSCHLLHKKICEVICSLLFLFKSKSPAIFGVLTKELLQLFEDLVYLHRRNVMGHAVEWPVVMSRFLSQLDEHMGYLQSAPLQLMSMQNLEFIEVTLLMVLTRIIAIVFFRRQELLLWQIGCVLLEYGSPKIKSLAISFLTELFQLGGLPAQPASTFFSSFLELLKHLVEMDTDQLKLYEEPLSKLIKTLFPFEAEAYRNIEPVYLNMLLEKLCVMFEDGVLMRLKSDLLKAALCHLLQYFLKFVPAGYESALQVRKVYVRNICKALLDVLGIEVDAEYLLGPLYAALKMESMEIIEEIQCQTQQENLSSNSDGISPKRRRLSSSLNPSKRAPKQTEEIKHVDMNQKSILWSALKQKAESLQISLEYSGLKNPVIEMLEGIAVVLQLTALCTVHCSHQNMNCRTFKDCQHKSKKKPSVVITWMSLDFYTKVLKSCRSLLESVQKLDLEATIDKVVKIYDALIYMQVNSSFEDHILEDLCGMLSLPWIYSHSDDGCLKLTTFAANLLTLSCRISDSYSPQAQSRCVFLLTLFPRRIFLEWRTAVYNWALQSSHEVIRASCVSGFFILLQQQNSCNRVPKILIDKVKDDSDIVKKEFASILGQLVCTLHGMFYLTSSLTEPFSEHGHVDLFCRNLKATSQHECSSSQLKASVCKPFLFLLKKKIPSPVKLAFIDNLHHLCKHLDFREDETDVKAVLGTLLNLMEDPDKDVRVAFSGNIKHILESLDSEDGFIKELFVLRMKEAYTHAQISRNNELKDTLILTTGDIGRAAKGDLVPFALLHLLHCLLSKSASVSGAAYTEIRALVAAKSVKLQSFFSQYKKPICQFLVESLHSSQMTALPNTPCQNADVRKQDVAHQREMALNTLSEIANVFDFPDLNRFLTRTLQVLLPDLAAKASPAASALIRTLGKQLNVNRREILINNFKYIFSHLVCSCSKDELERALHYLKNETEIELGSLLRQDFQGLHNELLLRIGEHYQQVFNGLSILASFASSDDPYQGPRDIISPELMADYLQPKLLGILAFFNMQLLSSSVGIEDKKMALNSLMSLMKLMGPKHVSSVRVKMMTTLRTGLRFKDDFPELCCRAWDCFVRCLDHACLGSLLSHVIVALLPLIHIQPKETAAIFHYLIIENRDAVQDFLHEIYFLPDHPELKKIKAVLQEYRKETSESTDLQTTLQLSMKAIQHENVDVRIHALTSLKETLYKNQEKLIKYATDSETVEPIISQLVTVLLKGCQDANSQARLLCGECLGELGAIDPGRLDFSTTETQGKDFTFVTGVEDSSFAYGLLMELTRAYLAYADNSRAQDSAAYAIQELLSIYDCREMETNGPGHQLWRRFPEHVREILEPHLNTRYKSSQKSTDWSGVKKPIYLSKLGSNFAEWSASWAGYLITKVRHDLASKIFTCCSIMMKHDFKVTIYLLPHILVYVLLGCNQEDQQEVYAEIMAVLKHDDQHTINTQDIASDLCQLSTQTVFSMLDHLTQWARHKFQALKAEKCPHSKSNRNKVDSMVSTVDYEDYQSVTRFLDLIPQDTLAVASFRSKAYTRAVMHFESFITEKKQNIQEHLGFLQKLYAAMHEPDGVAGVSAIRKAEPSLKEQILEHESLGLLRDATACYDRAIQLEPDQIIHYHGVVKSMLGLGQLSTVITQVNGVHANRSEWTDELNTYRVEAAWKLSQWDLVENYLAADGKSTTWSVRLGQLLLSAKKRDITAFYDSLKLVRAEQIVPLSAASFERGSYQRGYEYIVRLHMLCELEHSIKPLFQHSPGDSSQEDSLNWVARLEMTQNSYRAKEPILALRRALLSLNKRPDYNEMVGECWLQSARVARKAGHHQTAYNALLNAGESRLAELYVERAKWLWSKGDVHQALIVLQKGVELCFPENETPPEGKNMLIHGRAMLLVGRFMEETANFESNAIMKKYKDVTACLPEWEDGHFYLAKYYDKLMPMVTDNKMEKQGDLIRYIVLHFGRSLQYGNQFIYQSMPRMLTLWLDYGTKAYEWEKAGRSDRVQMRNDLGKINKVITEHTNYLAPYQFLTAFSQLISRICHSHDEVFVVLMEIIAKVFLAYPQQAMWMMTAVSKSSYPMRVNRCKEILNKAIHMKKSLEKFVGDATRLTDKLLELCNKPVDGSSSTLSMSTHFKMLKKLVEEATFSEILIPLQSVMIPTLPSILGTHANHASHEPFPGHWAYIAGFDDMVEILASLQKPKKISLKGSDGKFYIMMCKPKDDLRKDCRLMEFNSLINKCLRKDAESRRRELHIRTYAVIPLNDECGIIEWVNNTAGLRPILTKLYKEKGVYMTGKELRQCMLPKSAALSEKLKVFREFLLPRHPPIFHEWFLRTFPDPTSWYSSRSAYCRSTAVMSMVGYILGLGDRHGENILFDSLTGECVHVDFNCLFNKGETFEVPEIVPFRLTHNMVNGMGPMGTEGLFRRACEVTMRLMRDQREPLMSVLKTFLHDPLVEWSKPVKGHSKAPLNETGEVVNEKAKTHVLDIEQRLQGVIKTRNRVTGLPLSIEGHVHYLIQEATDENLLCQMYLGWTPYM
T1 sequence (Q8WXE1 whole entry partner, the tested form may be a part): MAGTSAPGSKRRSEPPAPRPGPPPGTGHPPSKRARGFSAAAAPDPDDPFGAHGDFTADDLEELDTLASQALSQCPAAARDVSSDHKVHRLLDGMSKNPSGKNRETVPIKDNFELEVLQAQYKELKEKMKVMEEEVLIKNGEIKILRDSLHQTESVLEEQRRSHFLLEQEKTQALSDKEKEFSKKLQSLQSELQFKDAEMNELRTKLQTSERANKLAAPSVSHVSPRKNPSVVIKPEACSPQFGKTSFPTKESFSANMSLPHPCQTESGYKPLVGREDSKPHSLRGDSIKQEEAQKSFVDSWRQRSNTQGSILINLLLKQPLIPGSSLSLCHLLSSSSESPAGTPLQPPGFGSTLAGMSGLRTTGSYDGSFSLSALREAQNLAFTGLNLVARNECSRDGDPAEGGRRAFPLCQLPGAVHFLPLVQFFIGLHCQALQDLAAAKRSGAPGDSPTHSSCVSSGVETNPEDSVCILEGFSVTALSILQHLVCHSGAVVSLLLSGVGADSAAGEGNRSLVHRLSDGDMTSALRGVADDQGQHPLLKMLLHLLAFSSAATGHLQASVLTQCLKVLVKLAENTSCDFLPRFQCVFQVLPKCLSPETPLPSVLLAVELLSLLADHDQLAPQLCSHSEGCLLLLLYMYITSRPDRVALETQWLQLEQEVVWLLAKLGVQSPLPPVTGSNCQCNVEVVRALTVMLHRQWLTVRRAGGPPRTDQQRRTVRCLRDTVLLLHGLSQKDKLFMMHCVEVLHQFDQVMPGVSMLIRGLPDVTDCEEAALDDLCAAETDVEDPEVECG

[3] = molecular target: mTOR (Homo sapiens, UniProt P42345); assay: Enzyme - mTOR Kinase Assay (Echo); format: biochemical; conditions: recombinant FLAG-tagged mTOR (1362-2549); AlphaScreen; ATP 20 μM;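 note: enzyme expressed in HEK293 cells, 2 h incubation at room temperature, read-out is phosphorylation of a biotinylated peptide substrate detected with an anti-phospho p70 S6 Kinase (T389) antibody, inhibition lowers signal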
mTOR, sequence (P42345 1362-2549): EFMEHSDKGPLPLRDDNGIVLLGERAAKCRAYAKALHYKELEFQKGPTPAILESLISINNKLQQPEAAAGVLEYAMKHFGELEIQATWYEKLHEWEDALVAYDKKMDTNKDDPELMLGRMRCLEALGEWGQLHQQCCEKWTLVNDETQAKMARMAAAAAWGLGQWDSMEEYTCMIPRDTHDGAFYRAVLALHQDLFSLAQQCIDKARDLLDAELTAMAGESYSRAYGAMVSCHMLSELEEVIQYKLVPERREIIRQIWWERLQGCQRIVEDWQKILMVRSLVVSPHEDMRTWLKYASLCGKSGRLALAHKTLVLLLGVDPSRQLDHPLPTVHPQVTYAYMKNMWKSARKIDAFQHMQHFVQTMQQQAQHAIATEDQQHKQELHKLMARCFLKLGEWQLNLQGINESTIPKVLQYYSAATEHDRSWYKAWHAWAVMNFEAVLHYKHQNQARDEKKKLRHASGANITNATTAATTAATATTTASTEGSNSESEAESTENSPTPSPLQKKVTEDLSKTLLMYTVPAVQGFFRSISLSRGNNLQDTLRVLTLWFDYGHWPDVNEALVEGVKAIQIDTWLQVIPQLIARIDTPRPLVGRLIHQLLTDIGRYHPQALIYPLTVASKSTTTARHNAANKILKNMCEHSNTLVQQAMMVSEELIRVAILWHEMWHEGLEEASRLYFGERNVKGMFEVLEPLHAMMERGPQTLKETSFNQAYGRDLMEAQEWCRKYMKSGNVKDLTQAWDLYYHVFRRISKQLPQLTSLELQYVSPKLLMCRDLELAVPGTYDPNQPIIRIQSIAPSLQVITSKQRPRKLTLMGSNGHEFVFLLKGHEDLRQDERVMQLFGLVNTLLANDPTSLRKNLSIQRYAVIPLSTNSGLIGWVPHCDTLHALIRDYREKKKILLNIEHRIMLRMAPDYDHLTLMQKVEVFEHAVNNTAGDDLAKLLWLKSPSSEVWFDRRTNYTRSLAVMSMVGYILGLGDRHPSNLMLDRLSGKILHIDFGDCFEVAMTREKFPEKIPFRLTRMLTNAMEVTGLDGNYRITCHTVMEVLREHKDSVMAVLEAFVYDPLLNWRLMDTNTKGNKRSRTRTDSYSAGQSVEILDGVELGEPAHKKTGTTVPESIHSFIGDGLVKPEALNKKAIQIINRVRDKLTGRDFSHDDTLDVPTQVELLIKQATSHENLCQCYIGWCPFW

Compound | IC50 [2] [nM] | IC50 [3] [nM] | also measured
N.N.O=C([O-])C1(C(=O)[O-])CCC1.[Pt+2] [Carboplatin, reference compound] | – | – | IC50 ([1]; Carboplatin alone, 5 days growth): 3.97 µg/mL
C[C@@H]1COCCN1c1cc(C2(S(C)(=O)=O)CC2)nc(-c2cccc3[nH]ccc23)n1 [Example 3.01, 4-{4-[(3R)-3-Methylmorpholin-4-yl]-6-[1-(methylsulfonyl)cyclopropyl]pyrimidin-2-yl}-1H-indole] | – | – | IC50 ([1]; Homo sapiens, HT-29, 120 h, Carboplatin + 0.1 uM Example 3.01, 5 days growth, read-out: IC50): 1.96 µg/mL; IC50 ([1]; Homo sapiens, HT-29, 120 h, Carboplatin + 0.3 uM Example 3.01, 5 days growth, read-out: IC50): 0.39 µg/mL; PF50 ([1]; potentiation factor of Carboplatin by 0.1 uM Example 3.01 (ratio of IC50 values)): 2.02; PF50 ([1]; potentiation factor of Carboplatin by 0.3 uM Example 3.01 (ratio of IC50 values)): 10.08
CCS(=O)(=O)C1(c2cc(N3CCOC[C@H]3C)nc(-c3cccc4[nH]ccc34)n2)CCOCC1 [Example 3.21, 4-{4-[4-(Ethylsulfonyl)tetrahydro-2H-pyran-4-yl]-6-[(3R)-3-methylmorpholin-4-yl]pyrimidin-2-yl}-1H-indole] | 6.89 | 686 | –
CC(C)S(=O)(=O)C1(c2cc(N3CCOC[C@H]3C)nc(-c3cccc4[nH]ccc34)n2)CCOCC1 [Example 3.24, 4-(4-{4-[(1-Methylethyl)sulfonyl]tetrahydro-2H-pyran-4-yl}-6-[(3R)-3-methylmorpholin-4-yl]pyrimidin-2-yl)-1H-indole] | 261 | 6150 | –
CC(C)S(=O)(=O)C1(c2cc(N3CCOC[C@H]3C)nc(-c3cccc4[nH]ccc34)n2)CCNCC1 [Example 3.25, 4-(4-{4-[(1-Methylethyl)sulfonyl]piperidin-4-yl}-6-[(3R)-3-methylmorpholin-4-yl]pyrimidin-2-yl)-1H-indole] | 20.6 | 4240 | –

Further lines, with some results ahead:

IC50 [2] [nM] | IC50 [3] [nM] | Compound | also measured
2.5 | 71.1 | CCS(=O)(=O)C1(c2cc(N3CCOC[C@H]3C)nc(-c3cccc4[nH]ccc34)n2)CC1 [Example 3.20, 4-{4-[1-(Ethylsulfonyl)cyclopropyl]-6-[(3R)-3-methylmorpholin-4-yl]pyrimidin-2-yl}-1H-indole] | –
8.19 | 556 | CCS(=O)(=O)C1(c2cc(N3CCOC[C@H]3C)nc(-c3cccc4[nH]ccc34)n2)CCNCC1 [Example 3.22, 4-{4-[4-(Ethylsulfonyl)piperidin-4-yl]-6-[(3R)-3-methylmorpholin-4-yl]pyrimidin-2-yl}-1H-indole] | –
2.47 | 89.1 | CC(C)S(=O)(=O)C1(c2cc(N3CCOC[C@H]3C)nc(-c3cccc4[nH]ccc34)n2)CC1 [Example 3.23, 4-(4-{1-[(1-Methylethyl)sulfonyl]cyclopropyl}-6-[(3R)-3-methylmorpholin-4-yl]pyrimidin-2-yl)-1H-indole] | –
